# Like-named read-outs stand apart in the source and are kept apart here.
# Legend:
# [1] = molecular target: T1, HIV protease (Human immunodeficiency virus type 1 group M subtype B, UniProt P04585); experiment: biochemical; conditions: for inhibition at 200 µg/mL: read-out: % Inhibition at 200 μg/ml
# T1 construct: purified HIV protease
# Method: This is confirmed by an HIV-specific protease enzyme test.
# The results of the examples shown below were determined by the HIV test system described in the following bibliographical references [cf. Hansen, J., Billich, S., Schulze, T., Sukrow, S. and Molling, K. (1988), EMBO Journal, Vol, 7, No. 6, pp. 1785-1791]: purified HIV protease was incubated with synthetic peptide which imitated a cleavage site in the Gag precursor protein and is an in vivo cleavage site of HIV protease. The resultant cleavage products of the synthetic peptide were analysed by means of reverse phase high performance liquid chromatography (RP-HPLC). The IC50 values indicated relate to the substance concentration which, under the abovementioned test conditions, causes a 50% inhibition of protease activity.
# [2] = system: HIV; experiment: HIV infection in cell culture: suppression of virus-induced syncytia in human blood lymphocytes (PBL); type: cell-based; conditions: Human immunodeficiency virus 1, 72 h, 50% of virus-induced syncytia suppressed, day 3 to 6 after infection
# Method: The HIV test was carried out with slight modifications by the method of Pauwels et al,. [cf. Journal of Virological Methods 20, (1988) , 309-321].
# Normal human blood lymphocytes (PBLs) were concentrated on Ficoll Hypaque and stimulated with phytohaemagglutinin (90 μg/ml) and interleukin-2 (40 U/ml) in RPMI 1640, 20% foetal calf serum. For infection with the infectious HIV, PBLs were pelleted and the cell pellet was then suspended in 1 ml of HIV virus adsorption solution and incubated at 37° C for 1 hour.
# Alternatively, HIV-susceptible H9 cells were employed instead of normal human blood lymphocytes for testing of the antiviral effects of the compounds according to the invention.
# The virus adsorption solution was centrifuged and the infected cell pellet was taken up in growth medium such that a concentration of 1×10^5 cells per ml was set. The cells infected in this way were pipetted at 1×10^4 cells/well into the wells of 96-well microtitre plates.
# The first vertical row of the microtitre plate contained only growth medium and cells which had not been infected but otherwise treated exactly as described above (cell control). […]
# The test batches were incubated at 37° C until the syncytia formation typical of HIV occurred in the untreated virus control (between day 3 and 6 after infection), which was then assessed microscopically. […]
# [3] = 200 μg/ml, purified HIV protease, synthetic peptide substrate, RP-HPLC
"inhibition at 200 µg/mL [1, 3]",Compound,inhibition at 200 µg/mL [1],also measured
99%,"COc1cccc2c1OC(C(=O)N1CCC(NC(=O)Nc3ccccc3)CC1)CC2 (centres unmarked) [Example 1, 8-Methoxy-2-[4-(phenylaminocarbonyl-amino)piperidylcarbonyl]-chroman]",,
,O=c1[nH]c2ccccc2n1C1CCN(CC2CCc3ccccc3O2)CC1 (centres unmarked) [Example 27],81%,
,O=c1[nH]c2ccccc2n1C1CCN(C[C@@H]2CCc3ccccc3O2)CC1 [Example 28],94%,
65%,O=C(C1CCc2ccccc2O1)N1CCC(n2c(=O)[nH]c3ccccc32)CC1 (centres unmarked) [Example 21],,
74%,COc1cccc2c1O[C@H](C(=O)N1CCC(n3c(=O)[nH]c4ccccc43)CC1)CC2 [Example 25],,
,COc1cccc2c1OC(CN1CCC(n3c(=O)[nH]c4ccccc43)CC1)CC2 (centres unmarked) [Example 30],99%,"IC50 ([1]; 50% inhibition of protease activity, purified HIV protease, synthetic peptide substrate): 0.0002 µM; IC50 [2]: 10 µM"
99%,COc1cccc2c1OC(C(=O)N1CCC(n3c(=O)[nH]c4ccccc43)CC1)CC2 (centres unmarked) [Example 24],,
,"O=c1[nH]c2ccccc2n1C1CCN(CC2CCc3cccc(O)c3O2)CC1 (racemic) [Example 33, 8-Hydroxy-2-[4-(2-oxo-1-benzimidazolyl)piperidylmethyl]-chroman]",99%,
,COc1cccc2c1O[C@H](CN1CCC(n3c(=O)[nH]c4ccccc43)CC1)CC2 [Example 31],,IC50 [2]: 10 µM
